{"source": "patent US11691980B2", "about": "“Liphagal analog and multi-targeted kinase inhibitor containing liphagal or analog thereof” (TOHOKU UNIVERSITY, priority 2017, dated 2023)", "type_in_all_cases": "biochemical", "key": {"[1]": {"target": "T1, MST 4 (Homo sapiens, UniProt Q9P289)", "T1 construct": "purchased Carna Biosciences", "experiment": "mobility shift assay"}, "[2]": {"target": "CDK4/CycD3 (Homo sapiens, UniProt P11802)", "sequence (P11802 whole entry)": "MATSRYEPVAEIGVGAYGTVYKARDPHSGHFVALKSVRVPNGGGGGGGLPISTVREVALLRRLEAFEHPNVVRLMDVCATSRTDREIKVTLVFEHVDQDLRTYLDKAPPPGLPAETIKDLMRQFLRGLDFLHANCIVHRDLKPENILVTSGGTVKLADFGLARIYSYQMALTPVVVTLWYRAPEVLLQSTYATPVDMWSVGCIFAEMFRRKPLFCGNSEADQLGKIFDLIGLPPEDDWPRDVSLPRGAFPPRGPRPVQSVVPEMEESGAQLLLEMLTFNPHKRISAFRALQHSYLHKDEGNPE", "sequence (P30281 whole entry partner)": "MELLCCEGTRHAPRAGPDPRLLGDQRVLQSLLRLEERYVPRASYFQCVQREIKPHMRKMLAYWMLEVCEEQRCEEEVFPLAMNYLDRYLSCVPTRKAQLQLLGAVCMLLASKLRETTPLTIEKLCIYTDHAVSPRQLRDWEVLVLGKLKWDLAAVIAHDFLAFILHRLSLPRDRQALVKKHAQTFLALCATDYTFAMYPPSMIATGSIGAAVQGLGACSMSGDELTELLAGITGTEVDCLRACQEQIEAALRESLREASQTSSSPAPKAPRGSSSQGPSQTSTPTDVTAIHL", "experiment": "mobility shift assay"}, "[3]": {"target": "T2, MST3 (Homo sapiens, UniProt Q9Y6E0)", "T2 construct": "purchased Carna Biosciences", "experiment": "mobility shift assay"}, "[4]": {"target": "T3, SPHK1 (Homo sapiens, UniProt Q9NYA1)", "T3 construct": "purchased Carna Biosciences", "experiment": "mobility shift assay"}, "[5]": {"target": "T4, AurC (Homo sapiens, UniProt Q9UQB9)", "T4 construct": "purchased Carna Biosciences", "experiment": "mobility shift assay"}, "[6]": {"target": "T5, CLK1 (Homo sapiens, UniProt P49759)", "T5 construct": "purchased Carna Biosciences", "experiment": "mobility shift assay"}, "[7]": {"target": "T6, CDC7/ASK (Homo sapiens, UniProt O00311)", "T6 construct": "purchased Carna Biosciences", "experiment": "mobility shift assay"}, "[8]": {"target": "T7, NEK7 (Homo sapiens, UniProt Q8TDX7)", "T7 construct": "purchased Carna Biosciences", "experiment": "mobility shift assay"}, "[9]": {"target": "T8, FES (Homo sapiens, UniProt P07332)", "T8 construct": "purchased Carna Biosciences", "experiment": "mobility shift assay"}, "[10]": {"target": "T9, GSK3α (Homo sapiens, UniProt P49840)", "T9 construct": "purchased Carna Biosciences", "experiment": "mobility shift assay"}, "[11]": {"target": "T10, AMPKα1/β1/γ1 (Homo sapiens, UniProt Q13131)", "T10 construct": "purchased Carna Biosciences", "experiment": "mobility shift assay"}, "[12]": {"target": "T11, PKACγ (Homo sapiens, UniProt P22612)", "T11 construct": "purchased Carna Biosciences", "experiment": "mobility shift assay"}, "[13]": {"target": "T12, WNK1 (Homo sapiens, UniProt Q9H4A3)", "T12 construct": "purchased Carna Biosciences", "experiment": "mobility shift assay"}, "[14]": {"target": "T13, COT_Cascade (Homo sapiens, UniProt P41279)", "T13 construct": "purchased Carna Biosciences", "experiment": "mobility shift assay"}, "[15]": {"target": "T14, PEK (Homo sapiens, UniProt Q9NZJ5)", "T14 construct": "purchased Carna Biosciences", "experiment": "IMAP Assay"}, "[16]": {"target": "T15, M88K1 (Homo sapiens, UniProt Q9UPE1)", "T15 construct": "purchased Carna Biosciences", "experiment": "mobility shift assay"}, "[17]": {"target": "T16, PDGFRα (Homo sapiens, UniProt P16234)", "T16 construct": "purchased Carna Biosciences", "experiment": "mobility shift assay"}, "[18]": {"target": "T17, RSK3 (Homo sapiens, UniProt Q15349)", "T17 construct": "purchased Carna Biosciences", "experiment": "mobility shift assay"}, "[19]": {"target": "T18, KIT (Homo sapiens, UniProt P10721)", "T18 construct": "purchased Carna Biosciences", "experiment": "mobility shift assay"}, "[20]": {"target": "T19, HCK (Homo sapiens, UniProt P08631)", "T19 construct": "purchased Carna Biosciences", "experiment": "mobility shift assay"}, "[21]": {"target": "T20, PKD3 (Homo sapiens, UniProt O94806)", "T20 construct": "purchased Carna Biosciences", "experiment": "mobility shift assay"}, "[22]": {"target": "T21, EGFR(L861Q) (Homo sapiens, UniProt P00533, L861Q)", "T21 construct": "purchased Carna Biosciences", "experiment": "mobility shift assay"}, "[23]": {"target": "T22, ARG (Homo sapiens, UniProt P42684)", "T22 construct": "purchased Carna Biosciences", "experiment": "mobility shift assay"}, "[24]": {"target": "T23, IRAK1 (Homo sapiens, UniProt P51617)", "T23 construct": "purchased Carna Biosciences", "experiment": "IMAP Assay"}, "[25]": {"target": "T24, ALK(C1156Y) (Homo sapiens, UniProt Q9UM73, C1156Y)", "T24 construct": "purchased Carna Biosciences", "T24 sequence (Q9UM73 19-1620 C1156Y)": "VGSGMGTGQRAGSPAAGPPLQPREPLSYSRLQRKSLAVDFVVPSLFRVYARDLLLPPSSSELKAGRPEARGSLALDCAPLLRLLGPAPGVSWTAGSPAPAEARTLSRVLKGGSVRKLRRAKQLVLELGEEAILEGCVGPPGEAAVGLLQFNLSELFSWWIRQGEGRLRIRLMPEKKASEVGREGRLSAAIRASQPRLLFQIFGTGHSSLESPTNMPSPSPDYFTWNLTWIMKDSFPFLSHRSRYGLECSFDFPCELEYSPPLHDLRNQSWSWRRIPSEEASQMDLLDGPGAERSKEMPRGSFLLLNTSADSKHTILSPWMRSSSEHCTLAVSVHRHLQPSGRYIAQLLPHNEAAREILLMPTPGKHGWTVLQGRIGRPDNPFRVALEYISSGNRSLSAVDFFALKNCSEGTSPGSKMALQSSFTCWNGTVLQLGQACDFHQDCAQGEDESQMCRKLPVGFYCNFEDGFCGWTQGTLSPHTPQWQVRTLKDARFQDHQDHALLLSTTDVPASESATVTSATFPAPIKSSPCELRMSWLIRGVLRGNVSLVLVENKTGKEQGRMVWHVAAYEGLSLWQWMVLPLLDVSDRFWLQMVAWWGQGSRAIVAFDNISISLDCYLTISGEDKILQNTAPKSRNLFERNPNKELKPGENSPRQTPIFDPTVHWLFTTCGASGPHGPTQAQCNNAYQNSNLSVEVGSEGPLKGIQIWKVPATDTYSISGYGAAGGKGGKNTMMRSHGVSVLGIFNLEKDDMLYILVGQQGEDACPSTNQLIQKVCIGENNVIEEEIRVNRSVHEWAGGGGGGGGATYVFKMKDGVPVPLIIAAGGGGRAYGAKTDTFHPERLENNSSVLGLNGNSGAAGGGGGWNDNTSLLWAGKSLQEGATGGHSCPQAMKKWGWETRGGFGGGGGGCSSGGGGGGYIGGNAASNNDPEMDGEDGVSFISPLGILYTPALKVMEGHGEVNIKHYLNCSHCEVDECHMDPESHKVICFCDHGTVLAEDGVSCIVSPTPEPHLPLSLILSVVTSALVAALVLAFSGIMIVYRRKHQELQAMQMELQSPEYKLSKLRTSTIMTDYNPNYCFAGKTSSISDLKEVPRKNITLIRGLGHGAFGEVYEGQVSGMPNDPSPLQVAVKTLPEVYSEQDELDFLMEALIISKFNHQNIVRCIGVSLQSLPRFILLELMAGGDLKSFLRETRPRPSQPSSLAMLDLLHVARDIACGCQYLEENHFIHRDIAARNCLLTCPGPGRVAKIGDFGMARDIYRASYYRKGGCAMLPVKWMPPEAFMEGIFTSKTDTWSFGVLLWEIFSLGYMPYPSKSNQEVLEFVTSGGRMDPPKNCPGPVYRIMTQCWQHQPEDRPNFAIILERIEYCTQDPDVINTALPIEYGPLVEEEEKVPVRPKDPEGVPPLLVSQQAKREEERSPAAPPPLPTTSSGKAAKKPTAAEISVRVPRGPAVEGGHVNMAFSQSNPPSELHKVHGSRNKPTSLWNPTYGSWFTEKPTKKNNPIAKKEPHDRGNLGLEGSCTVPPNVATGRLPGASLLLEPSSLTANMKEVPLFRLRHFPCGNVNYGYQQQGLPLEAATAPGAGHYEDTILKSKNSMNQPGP", "experiment": "mobility shift assay"}, "[26]": {"target": "T25, p38α (Homo sapiens, UniProt Q16539)", "T25 construct": "purchased Carna Biosciences", "experiment": "mobility shift assay"}, "[27]": {"target": "T26, ALK(G1202R) (Homo sapiens, UniProt Q9UM73, G1202R)", "T26 construct": "purchased Carna Biosciences", "T26 sequence (Q9UM73 19-1620 G1202R)": "as the sequence (Q9UM73 19-1620 C1156Y) above, with Y1138C, G1184R counted along it", "experiment": "mobility shift assay"}, "[28]": {"target": "T27, MAP2K5 Cascade (Homo sapiens, UniProt Q13163)", "T27 construct": "purchased Carna Biosciences", "experiment": "mobility shift assay"}, "[29]": {"target": "T28, MGC42105 (Homo sapiens, UniProt Q8IY84)", "T28 construct": "purchased Carna Biosciences", "experiment": "mobility shift assay"}, "[30]": {"target": "T29, FGFR1 (Homo sapiens, UniProt P11362)", "T29 construct": "purchased Carna Biosciences", "experiment": "mobility shift assay"}, "[31]": {"target": "T30, MARK4 (Homo sapiens, UniProt Q96L34)", "T30 construct": "purchased Carna Biosciences", "T30 sequence (Q96L34 whole entry)": "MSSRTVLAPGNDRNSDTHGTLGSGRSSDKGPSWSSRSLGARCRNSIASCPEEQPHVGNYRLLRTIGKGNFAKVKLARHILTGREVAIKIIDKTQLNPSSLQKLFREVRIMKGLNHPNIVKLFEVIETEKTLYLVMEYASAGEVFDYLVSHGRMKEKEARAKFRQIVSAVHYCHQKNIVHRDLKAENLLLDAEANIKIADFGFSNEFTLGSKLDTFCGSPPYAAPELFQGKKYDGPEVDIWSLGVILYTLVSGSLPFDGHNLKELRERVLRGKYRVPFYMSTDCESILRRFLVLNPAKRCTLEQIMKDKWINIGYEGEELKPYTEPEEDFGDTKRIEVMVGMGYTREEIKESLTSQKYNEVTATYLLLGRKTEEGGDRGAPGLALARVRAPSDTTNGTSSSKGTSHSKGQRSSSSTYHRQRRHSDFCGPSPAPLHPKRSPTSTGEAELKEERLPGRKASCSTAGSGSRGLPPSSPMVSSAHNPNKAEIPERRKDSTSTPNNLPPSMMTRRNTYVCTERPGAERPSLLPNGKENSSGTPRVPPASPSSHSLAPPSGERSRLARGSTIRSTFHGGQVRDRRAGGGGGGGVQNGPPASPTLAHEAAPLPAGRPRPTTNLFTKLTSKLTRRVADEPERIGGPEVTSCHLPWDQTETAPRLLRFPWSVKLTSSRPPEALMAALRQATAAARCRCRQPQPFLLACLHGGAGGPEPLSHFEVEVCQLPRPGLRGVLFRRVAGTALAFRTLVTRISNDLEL", "experiment": "mobility shift assay"}, "[32]": {"target": "T31, FGFR3 (Homo sapiens, UniProt P22607)", "T31 construct": "purchased Carna Biosciences", "T31 sequence (P22607 23-806)": "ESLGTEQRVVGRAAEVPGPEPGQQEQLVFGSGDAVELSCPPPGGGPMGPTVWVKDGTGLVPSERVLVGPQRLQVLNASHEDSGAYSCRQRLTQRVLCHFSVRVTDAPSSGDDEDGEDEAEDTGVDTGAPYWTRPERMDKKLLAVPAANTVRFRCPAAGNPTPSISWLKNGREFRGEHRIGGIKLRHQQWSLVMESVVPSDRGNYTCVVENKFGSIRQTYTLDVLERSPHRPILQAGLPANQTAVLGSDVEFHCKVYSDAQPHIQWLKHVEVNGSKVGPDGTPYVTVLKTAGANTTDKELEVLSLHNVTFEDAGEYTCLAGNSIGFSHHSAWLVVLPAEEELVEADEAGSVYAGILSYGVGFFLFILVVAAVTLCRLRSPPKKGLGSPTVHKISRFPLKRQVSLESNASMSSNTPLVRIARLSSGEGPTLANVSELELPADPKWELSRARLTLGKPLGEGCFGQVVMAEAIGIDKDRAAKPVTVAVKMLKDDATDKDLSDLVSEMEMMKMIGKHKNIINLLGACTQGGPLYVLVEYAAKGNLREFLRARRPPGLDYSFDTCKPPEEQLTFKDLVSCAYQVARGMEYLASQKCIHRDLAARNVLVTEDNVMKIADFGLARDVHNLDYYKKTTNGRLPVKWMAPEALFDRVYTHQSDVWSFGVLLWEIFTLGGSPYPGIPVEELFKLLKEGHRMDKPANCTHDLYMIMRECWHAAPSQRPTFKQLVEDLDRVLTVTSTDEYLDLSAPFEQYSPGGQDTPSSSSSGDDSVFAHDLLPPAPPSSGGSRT", "experiment": "mobility shift assay"}, "[33]": {"target": "T32, SRC (Homo sapiens, UniProt P12931)", "T32 construct": "purchased Carna Biosciences", "experiment": "mobility shift assay"}, "[34]": {"target": "T33, PKCβ2 (Homo sapiens, UniProt P05771)", "T33 construct": "purchased Carna Biosciences", "T33 sequence (P05771 1-673 isoform P05771-2)": "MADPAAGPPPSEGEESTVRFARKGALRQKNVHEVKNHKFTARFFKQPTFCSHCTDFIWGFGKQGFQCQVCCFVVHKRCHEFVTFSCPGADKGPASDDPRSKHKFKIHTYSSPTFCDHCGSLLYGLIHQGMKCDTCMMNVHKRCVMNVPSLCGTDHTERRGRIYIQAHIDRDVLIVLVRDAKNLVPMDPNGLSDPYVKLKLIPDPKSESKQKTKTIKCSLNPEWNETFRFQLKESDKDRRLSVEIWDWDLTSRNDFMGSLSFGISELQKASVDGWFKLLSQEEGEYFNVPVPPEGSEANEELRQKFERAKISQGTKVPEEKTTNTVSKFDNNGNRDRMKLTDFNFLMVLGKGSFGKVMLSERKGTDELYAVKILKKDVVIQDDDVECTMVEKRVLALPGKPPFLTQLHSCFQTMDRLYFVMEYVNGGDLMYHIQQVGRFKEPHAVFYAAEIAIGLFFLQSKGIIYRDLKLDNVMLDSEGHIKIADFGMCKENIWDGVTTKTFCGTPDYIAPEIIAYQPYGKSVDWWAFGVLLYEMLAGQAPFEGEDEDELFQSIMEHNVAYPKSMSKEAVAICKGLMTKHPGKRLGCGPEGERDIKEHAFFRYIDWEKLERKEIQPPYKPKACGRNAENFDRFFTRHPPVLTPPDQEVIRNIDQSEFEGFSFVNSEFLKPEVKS", "experiment": "mobility shift assay"}, "[35]": {"target": "T34, PAK4 (Homo sapiens, UniProt O96013)", "T34 construct": "purchased Carna Biosciences", "experiment": "mobility shift assay"}, "[36]": {"target": "CDK6 (Homo sapiens, UniProt Q00534)", "sequence (Q00534 whole entry)": "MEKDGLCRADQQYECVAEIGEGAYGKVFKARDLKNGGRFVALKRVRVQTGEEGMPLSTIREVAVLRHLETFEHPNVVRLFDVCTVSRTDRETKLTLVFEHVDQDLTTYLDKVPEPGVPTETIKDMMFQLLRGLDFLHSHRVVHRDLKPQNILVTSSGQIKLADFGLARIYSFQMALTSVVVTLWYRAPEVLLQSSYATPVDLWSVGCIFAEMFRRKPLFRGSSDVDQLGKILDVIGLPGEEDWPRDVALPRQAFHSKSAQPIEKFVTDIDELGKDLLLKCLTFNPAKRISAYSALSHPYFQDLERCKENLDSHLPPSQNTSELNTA", "experiment": "IC50 by mobility shift assay", "settings": "Table 4, inhibitory activity against CDK6, mobility shift assay; read-out: IC50 (μM), Kinase", "from_the_text": "Next, the compounds produced in Production Examples described above were each assessed for its inhibitory activity against CDK6 by mobility shift assay. In addition, a combination showing the highest inhibitory activity is indicated by italics."}, "[37]": {"target": "PIK3CA/PIK3R1 (Homo sapiens, UniProt P42336)", "experiment": "mobility shift assay", "set-up": "purchased Carna Biosciences", "description": "LG-1 (liphgal) at 10 μM was assessed for its inhibitory activity against 313 kinds of kinases by mobility shift assay or IMAP Assay™ (Carna Biosciences). Specifically, the assessment was performed by the IMAP Assay™ (Carna Biosciences) for SPRK1, PLK2, PKR, PKN1, PEK, IRAK1, and EKKα among the 313 kinds of kinases, and the assessment was performed by the mobility shift assay for all the other kinases. Inhibitory activity (% inhibition) against each kinase is represented by the size of a bubble on a protein kinase phylogenetic tree of FIG. 2."}}, "data": [{"smiles": "C[C@@H]1CC[C@H]2C(C)(C)CCC[C@]2(C)c2c1oc1c(C=O)c(O)c(O)cc21", "note": "[LG-1, liphagal]", "values": [{"measurement": "inhibition at 10 µM", "setting": "[1]", "result": 80.3, "unit": "%"}, {"measurement": "inhibition at 10 µM", "setting": "[2]; CDK4/CycD3", "result": 63.4, "unit": "%"}, {"measurement": "inhibitory activity against CDK4", "setting": "[2]; in words, 10 μM", "result": "Potent inhibitory activity"}, {"measurement": "inhibition at 10 µM", "setting": "[3]", "result": 62.7, "unit": "%"}, {"measurement": "inhibition at 10 µM", "setting": "[4]", "result": 59.8, "unit": "%"}, {"measurement": "inhibition at 10 µM", "setting": "[5]", "result": 36.3, "unit": "%"}, {"measurement": "inhibition at 10 µM", "setting": "[6]", "result": 30.1, "unit": "%"}, {"measurement": "inhibition at 10 µM", "setting": "[7]", "result": 26.2, "unit": "%"}, {"measurement": "inhibition at 10 µM", "setting": "[8]", "result": 24.4, "unit": "%"}, {"measurement": "inhibition at 10 µM", "setting": "[9]", "result": 23.4, "unit": "%"}, {"measurement": "inhibition at 10 µM", "setting": "[10]", "result": 23.1, "unit": "%"}, {"measurement": "inhibition at 10 µM", "setting": "[11]", "result": 19.9, "unit": "%"}, {"measurement": "inhibition at 10 µM", "setting": "[12]", "result": 18.7, "unit": "%"}, {"measurement": "inhibition at 10 µM", "setting": "[13]", "result": 17.3, "unit": "%"}, {"measurement": "inhibition at 10 µM", "setting": "[14]", "result": 14.7, "unit": "%"}, {"measurement": "inhibition at 10 µM", "setting": "[15]", "result": 13.2, "unit": "%"}, {"measurement": "inhibition at 10 µM", "setting": "[16]", "result": 9.3, "unit": "%"}, {"measurement": "inhibition at 10 µM", "setting": "[17]", "result": 8.2, "unit": "%"}, {"measurement": "inhibition at 10 µM", "setting": "[18]", "result": 8.1, "unit": "%"}, {"measurement": "inhibition at 10 µM", "setting": "[19]", "result": 6, "unit": "%"}, {"measurement": "inhibition at 10 µM", "setting": "[20]", "result": 4.8, "unit": "%"}, {"measurement": "inhibition at 10 µM", "setting": "[21]", "result": 2.7, "unit": "%"}, {"measurement": "inhibition at 10 µM", "setting": "[22]", "result": 1.5, "unit": "%"}, {"measurement": "inhibition at 10 µM", "setting": "[23]", "result": 1.4, "unit": "%"}, {"measurement": "inhibition at 10 µM", "setting": "[24]", "result": 1.2, "unit": "%"}, {"measurement": "inhibition at 10 µM", "setting": "[25]", "result": 0.2, "unit": "%"}, {"measurement": "inhibition at 10 µM", "setting": "[26]", "result": 0.1, "unit": "%"}, {"measurement": "inhibition at 10 µM", "setting": "[27]", "result": -0.3, "unit": "%"}, {"measurement": "inhibition at 10 µM", "setting": "[28]", "result": -1.3, "unit": "%"}, {"measurement": "inhibition at 10 µM", "setting": "[29]", "result": -1.7, "unit": "%"}, {"measurement": "inhibition at 10 µM", "setting": "[30]", "result": -2.3, "unit": "%"}, {"measurement": "inhibition at 10 µM", "setting": "[31]", "result": -3.8, "unit": "%"}, {"measurement": "inhibition at 10 µM", "setting": "[32]", "result": -4.4, "unit": "%"}, {"measurement": "inhibition at 10 µM", "setting": "[33]", "result": -7.1, "unit": "%"}, {"measurement": "inhibition at 10 µM", "setting": "[34]", "result": -13.2, "unit": "%"}, {"measurement": "inhibition at 10 µM", "setting": "[35]", "result": -24.7, "unit": "%"}, {"measurement": "IC50", "setting": "[36]", "result": 6.78, "unit": "µM"}, {"measurement": "inhibition at 10 µM", "setting": "[37]", "result": 83.4, "unit": "%"}]}]}
